Assay results published in patent US20070004680A1, “Compositions and methods for modulating gated ion channels” (PainCeptor Pharma Corporation, priority 2004, published 2007).

Target: T1, ASIC1a (Homo sapiens, UniProt P78348)
T1 construct: host or cells: HEK293
T1 sequence (P78348 1-528): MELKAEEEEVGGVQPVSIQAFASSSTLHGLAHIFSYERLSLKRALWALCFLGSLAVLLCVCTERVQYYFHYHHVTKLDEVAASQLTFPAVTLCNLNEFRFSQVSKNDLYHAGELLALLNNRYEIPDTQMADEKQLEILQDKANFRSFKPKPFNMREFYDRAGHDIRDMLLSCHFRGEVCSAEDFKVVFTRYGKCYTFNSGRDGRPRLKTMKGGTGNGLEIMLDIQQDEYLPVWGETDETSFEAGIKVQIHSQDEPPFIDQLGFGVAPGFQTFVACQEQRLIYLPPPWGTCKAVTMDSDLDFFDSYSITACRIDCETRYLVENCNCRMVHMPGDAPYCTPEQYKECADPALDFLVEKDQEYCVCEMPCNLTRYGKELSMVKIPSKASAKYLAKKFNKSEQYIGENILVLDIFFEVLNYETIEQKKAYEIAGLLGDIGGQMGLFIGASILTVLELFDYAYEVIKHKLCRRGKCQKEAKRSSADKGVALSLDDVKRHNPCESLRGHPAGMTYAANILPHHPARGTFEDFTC
Assay: FLIPR calcium assay (MES-induced calcium response), ASIC1a expressing HEK293 cells
Type: cell-based
Details: HEK cells
Experimental: ASIC1a expressing HEK293 cells are grown in culture medium (DMEM with 10% FBS), in polystyrene culture flasks ([…]) at 37° C. in a humidified atmosphere of 5% CO2. Confluency of cells should be 80-90% on day of plating. Cells are rinsed with 10 ml of PBS and cells are re-suspended by addition of culture medium and trituration with a 25 ml pipette.
The cells are seeded at a density of approximately 1×10^6 cells/ml (100 μl/well) in black-walled, clear bottom, 96-well plates pre-treated with 10 mg/l poly-D-lysin (75 μl/well for ≧30 min). Plated cells were allowed to proliferate for 24 h before loading with dye.
Fluo-4/AM (1 mg, Molecular Probes) is added 912 μl DMSO. The Fluo-4/AM stock solution (1 mM) is diluted with culture medium to a final concentration of 2 μM.
The culture medium is aspirated from the wells, and 50 μl of the Fluo-4/AM loading solution is added to each well. The cells are incubated at 37° C. for 30 min.
After the loading period, the loading solution is aspirated and the cells are washed twice with 100 μl modified FLIPR medium (145 mM NaCl, 5 mM KCl, 5 mM CaCl2, 1 mM MgCl2, 10 mM HEPES, pH 7.4) to remove extracellular dye. Following the second wash, 100 μl modified FLIPR medium is added to each well and the fluorescence is measured in FLIPR.
Temperature: Room temperature (20-22° C.)
First addition: 50 μl test solution at a rate of 30 μl/sec and a starting height of […]
Second addition: 50 μl MES solution (20 mM, 5 mM final concentration) at a rate of 35 μl/sec and a starting height of 150 μl.
Reading intervals: pre-incubation—10 sec×7 and 3 sec×3 antagonist phase—3 sec×17 and 10 sec×12
Addition plates (compound test plate and MES plate) are placed on the right and left positions in the FLIPR tray, respectively. Cell plates are placed in the middle position and the ASIC1a program is effectuated. FLIPR will then take the appropriate measurements in accordance with the interval settings above. Fluorescence obtained after stimulation is corrected for the mean basal fluorescence (in modified FLIPR medium). […]

**Q.** With C=CC1CN2CCC1CC2[C@@H](OC(=O)CCC1CCCC1)c1ccnc2ccccc12 (some centres unmarked) [Compound A] as the molecule, how does the inhibition at 1 µM (HEK293, at 1 μM, FLIPR) read?
**A.** 30 to 45%

**Q.** And the IC50 (MES-induced calcium response, peak values)?
**A.** 1000 to 4000 nM
